The test system of data set [1] is L. donovani IRFP axenic amastigotes. As to the kind of experiment: Primary single-concentration screening on axenic amastigotes, growth inhibition at 72 h. In kind it is cell-based, Leishmania donovani. Conditions: axenic amastigotes; for inhibition at 1 µM / inhibition at 10 µM: Leishmania donovani; for inhibition at 1 µM / Growth Inhibition (%) at 72h, 1 µM_Exp1 / Growth Inhibition (%) at 72h, 1 µM_Exp2: 1 µM; for inhibition at 10 µM / Growth Inhibition (%) at 72h, 10 µM_Exp1 / Growth Inhibition (%) at 72h, 10 µM_Exp2: 10 µM.

The test system is the same in data set [2]. Briefly: Dose-response assay on axenic amastigotes. In kind it is cell-based, Leishmania donovani. The procedure: The objective of the present study was to identify new antileishmanial drug candidates by screening a commercial library of plant-derived alkaloids using a platform based on axenic amastigotes of L. donovani IRFP—the causative agent of VL—genetically modified to emit infrared fluorescence during their viable stage (hereafter referred to as L. donovani IRFP). To this end, single-dose assays at 10 μM and 1 μM, as well as dose–response assays, were performed. Compounds showing significant activity in the initial screening were subsequently clustered according to chemical structure using the DataWarrior tool, and representative compounds were further evaluated in dose response assays against axenic amastigotes.
Female Balb/c mice aged from 6 to 8 weeks were intraperitoneally inoculated with 1.5 × 10^9 infective L. donovani IRFP metacyclic promastigotes. Between 8 and 12 weeks after infection, mice were humanely euthanised and bone marrow was collected from the femurs and tibias of both hind limbs. The bones were cut at both ends, and prewarmed PBS was flushed through the medullary cavity using a syringe fitted with a 27G needle, to extract the bone marrow cells. The resulting cell suspension was filtered through a 100 µm cell strainer and centrifuged at 2500 rpm for 10 min at room temperature. To obtain free amastigotes, the pelleted cells were resuspended within a 75 mL ventilated flask in amastigote culture medium (15 mM KCl; 136 mM KH2PO4; 10 mM K2HPO4.3H2O; 0.5 mM MgSO4.7 H2O; 24 mM NaHCO3; 22 mM glucose; 1 mM glutamine, 1x RPMI 1640 vitamin mix (Sigma-Aldrich, Merck, Darmstadt, Germany), 10 mM folic acid, […], 1x RPMI amino acid mix (Sigma-Aldrich, Merck, Darmstadt, Germany), […], antibiotic mixture, 25 mM MES, 10% FBS (Gibco, ThermoFisher Scientific, Waltham, MA, USA) and incubated at 37 °C in a humidified atmosphere containing 5% CO2 [46].
The efficacy of the selected compounds was assessed by measuring near-infrared fluorescence (700 nm) using an Odyssey Infrared Imaging System (Li-Cor, Lincoln, NE, USA) following the previously described protocols.

Data set [3] relates to L. donovani IRFP intramacrophagic amastigotes. As to the kind of experiment: Dose-response assay on ex vivo infected splenic explants (intramacrophagic amastigotes). Type of data set: cell-based, Leishmania donovani. Conditions: read-out: EC50 Intramacrophagic Amastigotes.
Data set [4] can be described thus: Cytotoxicity in RAW 264.7 cells (alamarBlue, 72 h). Conditions: mouse. The procedure:
(§1) To this end, we calculated SIs from 16 preselected results from the ex vivo system. With this aim, dose–response curves were performed in duplicate across at least three independent experiments using RAW 264.7 mouse macrophages (as a model of host cells harboring amastigotes) and HepG2 (as a model for assessing systemic toxicity).
(§2) To evaluate the safety of the selected compounds, two cell lines were employed: RAW 264.7 (a mouse macrophage-derived cell line) and HepG2 (a human hepatoma cell line). Furthermore, to determine the intestinal tolerance relevant to potential oral administration, mouse intestinal organoids were prepared.
(§3) RAW 264.7 and HepG2 were routinely cultured under standard conditions. RAW 264.7 cells were maintained in RPMI medium (Gibco) supplemented with, 25 mM HEPES, 24 mM NaHCO3, 2 mM L-glutamine, mixture of antibiotics and 10% FBS. HepG2 cells were cultured in DMEM/F-12 (Gibco) and supplemented 10% of FBS. For cytotoxicity assays, 10,000 cells per well were seeded into 96-well plates and incubated overnight at 37 °C with 5% of CO2. Subsequently, 2-fold serial dilutions of the compounds were added and incubated for 72 h. Cell viability using the alamarBlue™ assay according to the manufacturer’s instructions, and fluorescence was measured with a Varioskan™ LUX microplate reader (ThermoFisher Scientific, Waltham, MA, USA). Non-linear regression analyses were performed using SigmaPlot^TM software (version 10.0) to calculate CC50. Data were obtained from at least three independent experiments performed in duplicate.
On the technique in general: Alamar Blue is a resazurin reagent that responds to reducing activity.

Data set [5] in a line: Cytotoxicity in HepG2 cells (alamarBlue, 72 h). Conditions: human. Here is the method:
as §1, §2, §3

Data set [6] has as its system axenic amastigotes of L. amazonensis. Details: method as in PMID 25029171. Conditions: compared with glucantime; cited from earlier work.
A further data set has as its system Leishmania amazonensis. Details: method as in PMID 25029171. Conditions: cited from earlier work.
The nature of data set [7]: Tolerance of mouse intestinal organoids (alamarBlue). Type of data set: cell-based. Conditions: C57BL/6, mouse. From the text: (§4) Mouse intestinal organoids were generated following protocols standardized previously. Briefly, to obtain adult intestine stem cells, C57BL/6 mice were humanely euthanized. A section of the duodenum was excised, rinsed in ice-cold PBS, and cut into small pieces for gentle dissociation using Gentle Cell Dissociation Reagent. Tissue fragments enriched in duodenal crypts and little tissue debris were microscopically selected and resuspended in a 1:1 mixture of Geltrex™ and IntestiCult™ Mouse Medium (Gibco, ThermoFisher Scientific, Waltham, MA, USA /Stemcell Technologies^TM, Vancouver, BC, Canada). Aliquots of 50 µL of this suspension were dispensed into the center of each well of a prewarmed 24-well plate to form domes containing organoids, which were then incubated to allow matrix polymerization. Then, […] of IntestiCult™ Mouse Medium was added to each well. The plate was incubated at 37 °C in a humidified atmosphere containing 5% CO2, and the culture medium was refreshed every 48 h. During this period, organoids continued to proliferate, and passaging was performed at a 1:4 ratio every 7–10 days.
(§5) To determine the in vitro tolerance to oral administration of the active compounds, a 384-well assay was adapted from the protocol described by Du and co-workers. Briefly, following medium removal, organoids were collected from the extracellular matrix using the same procedure as for passaging. The resulting pellet was resuspended in 3.2 mL of a 1:1 mixture of Geltrex™ LDEV-Free Reduced Growth Factor Basement Membrane Matrix (without phenol red, Gibco) and IntestiCult™ Mouse Medium. Using a chilled pipette dispenser, 8 µL of the organoid suspension was dispensed into pre-cooled 384-well plates, which were then gently agitated to evenly distribute the matrix. The plates were incubated at 37 °C for 10 min and then, 32 µL of IntestiCult™ Mouse Medium was added to each well. To prevent edge effects, 100 µL of sterile water was added to the perimeter wells. After 3 days of culture, 10 µL per well of the test compounds dissolved in IntestiCult™ Mouse Medium were added. Positive (0.03% H2O2) and negative (0.2% DMSO) controls were included in each assay. After 72 h of incubation, 5 µL of alamarBlue™ HS were added to each well, and fluorescence was measured after 24 h using a Varioskan™ LUX microplate reader. All assays were conducted in triplicate and repeated in at least three independent experiments.

A further data set has as its system RAW 264.7. Briefly: Cytotoxicity in RAW 264.7 cells (alamarBlue, 72 h). Conditions: read-out: CC50 RAW 264.7; 72 h, alamarBlue. The procedure:
as §1, §2, §3

For the next data set, the system named is HepG2. As to the kind of experiment: Cytotoxicity in HepG2 cells (alamarBlue, 72 h). Conditions: read-out: CC50 HepG2; 72 h, alamarBlue. Here is the method: as §1, §2, §3
In data set [8] the test system is mouse intestinal organoids. As to the kind of experiment: Tolerance of mouse intestinal organoids (alamarBlue). Conditions: for CC50: 72 h incubation, Figure S4. In kind it is cell-based.
Text: as §4, §5

The mark [9] stands for this setting: experiment 1, 72 h, read-out: Growth Inhibition (%) at 72h, 1 µM_Exp1.
Setting [10] is: experiment 2, 72 h, read-out: Growth Inhibition (%) at 72h, 1 µM_Exp2.
[11] abbreviates: experiment 1, 72 h, read-out: Growth Inhibition (%) at 72h, 10 µM_Exp1.
Setting [12] is: experiment 2, 72 h, read-out: Growth Inhibition (%) at 72h, 10 µM_Exp2.
[13] abbreviates: Leishmania donovani, Splenocyte, primary cultures of infected mouse splenocytes.
Setting [14] is: mouse intestinal organoids (from duodenal crypts), 72 h incubation, Figure S4, read-out: CC50 mouse intestinal organoids.
[15] abbreviates: primary cultures of infected mouse splenocytes.

Like-named read-outs stand apart in the source and are kept apart here.

For orientation: inhibition means the change of the read-out against control, counted positive when it falls. For orientation: IC50 means the midpoint of a concentration-inhibition curve. Read a high IC50 as lower potency. The EC50 is the midpoint of the concentration-response curve. Turning to `COc1ccc2c(c[n+](C)c3c4cc5c(cc4ccc23)OCO5)c1OC` [Chelerythrine], the inhibition at 1 µM turned out to be 97.2% in [1] (setting [9]) and 95.7% in data set [1] (setting [10]). In addition, the results for the inhibition at 10 µM in data set [1] (setting [11]) and in data set [1] (setting [12]) were 100% and 101%, respectively. The compound also came in with an IC50 in data set [2] (Leishmania donovani) of 0.08 ± 0.01 µM. Further, the EC50 in data set [3] (setting [13]) was 1.61 ± 0.05 µM. In addition, the CC50 at 72 h was 5.51 ± 0.16 µM in data set [4] and 5.5 ± 0.64 µM in data set [5]. The “in vitro IC50 values against axenic amastigotes of L. amazonensis” value in [6] is on record as “very similar to those of glucantime”. The “antileishmanial effect in vivo” value with Leishmania amazonensis is on record as “moderate”.
Regarding `COc1cc2c(cc1OC)-c1c(C)c3ccc(OC)c(OC)c3c[n+]1CC2` [Dehydrocorydaline], the inhibition at 1 µM is 19.1% in data set [1] (setting [9]) and -42.6% in data set [1] (setting [10]). Moreover, the inhibition at 10 µM was 81.7% in data set [1] (setting [11]) and 88.3% in [1] (setting [12]). In data set [2] (Leishmania donovani), this compound showed an IC50 of 2.81 ± 0.49 µM. Also, in [3] (setting [13]), the EC50 came to 2.68 ± 0.11 µM. In addition, the results for the CC50 at 72 h in data set [4] (RAW 264.7 macrophage cells), in [5] (HepG2 hepatoma cells) and in data set [7] (setting [14]) were more than 10 µM, more than 10 µM and more than 50 µM, respectively.
The compound `COc1ccc2cc3[n+](cc2c1OC)CCc1cc2c(cc1-3)OCO2` [Berberine] showed an IC50 in data set [2] (Leishmania donovani) of 0.57 ± 0.08 µM. In data set [3] (setting [13]), the EC50 came to 1.76 ± 0.06 µM. The CC50 at 72 h in data set [4] (RAW 264.7 macrophage cells) is more than 20 µM; in [5] (HepG2 hepatoma cells) it was more than 20 µM; in data set [7] (setting [14]) it was more than 25 µM.
Consider `c1c2c(cc3c1OCO3)-c1cc3ccc4c(c3c[n+]1CC2)OCO4` [Coptisine], for which the IC50 in data set [2] (Leishmania donovani) was found to be 2.85 ± 0.25 µM. Besides, the EC50 in data set [3] (Leishmania donovani, Splenocyte, in Mus musculus) came out at 3.39 ± 0.23 µM. In addition, the CC50 at 72 h in data set [4] is more than 10 µM; in data set [5], more than 10 µM; in [7], more than 25 µM.
Take `COc1cc2c[n+](C)c3c4cc5c(cc4ccc3c2cc1OC)OCO5` [Nitidine]: the inhibition at 1 µM in data set [1] (setting [9]) turned out to be 45%; in data set [1] (setting [10]) it was 69.6%. Further, the inhibition at 10 µM in data set [1] (setting [11]) was 100%; in data set [1] (setting [12]) it was 99.7%. Moreover, half-maximal inhibition in data set [2] (Leishmania donovani) (IC50) was put at 0.27 ± 0.01 µM. Besides, the EC50 in data set [3] (setting [13]) was determined as 0.65 ± 0.03 µM. The results for the CC50 at 72 h in [4] (RAW 264.7 macrophage cells) and in data set [5] (HepG2 hepatoma cells) were 2.01 ± 0.16 µM and 0.49 ± 0.02 µM, respectively. Further, the “in vitro IC50 values against axenic amastigotes of L. amazonensis” value in data set [6] was “very similar to those of glucantime”. The “antileishmanial effect in vivo” value in the data set on Leishmania amazonensis is “moderate”.
As for `COc1ccc2c(c1OC)C(OC)N(C)c1c-2ccc2cc3c(cc12)OCO3` (stereo not shown) [Angoline], in data set [1] (experiment 1, 72 h), the “Growth Inhibition (%) at 72h, 1 µM_Exp1” value was determined as 83.55% and the “Growth Inhibition (%) at 72h, 10 µM_Exp1” value came to 100.85%. Besides, in [1] (experiment 2, 72 h), the “Growth Inhibition (%) at 72h, 1 µM_Exp2” value turned out to be 85.33% and the “Growth Inhibition (%) at 72h, 10 µM_Exp2” value worked out at 100.07%. Further, the midpoint of inhibition in data set [2], the IC50, lay at 0.12 ± 0.01 µM. For the same compound, the EC50 in [3] (setting [15]) stood at 1.15 ± 0.04 µM. For the same compound, the CC50 in the data set on RAW 264.7 amounted to 5.28 ± 0.28 µM. The CC50 with HepG2 amounted to 5.15 ± 0.21 µM. The compound also showed a CC50 in data set [8] of 12.6 ± 0.6 µM. Moreover, the “Toxicity in mouse intestinal organoids (tolerance for oral administration)” value in [8] (in words) is listed as “significant toxicity”.
As for `COc1ccc2c(C)c3[n+](cc2c1OC)CCc1cc2c(cc1-3)OCO2` [13-Methylberberine], in data set [1] (experiment 1, 72 h), the “Growth Inhibition (%) at 72h, 1 µM_Exp1” value came to 58.33% and the “Growth Inhibition (%) at 72h, 10 µM_Exp1” value stood at 86.05%. For the same compound, in data set [1] (experiment 2, 72 h), the “Growth Inhibition (%) at 72h, 1 µM_Exp2” value is 69.84% and the “Growth Inhibition (%) at 72h, 10 µM_Exp2” value is 98.60%. In addition, the IC50 in data set [2] is 0.5 ± 0.04 µM. In data set [3] (setting [15]), the EC50 came out at 0.75 ± 0.02 µM. For the same compound, in the data set on RAW 264.7, the CC50 was more than 10 µM. For the same compound, in the data set on HepG2, the CC50 came out at 28.3 ± 9.18 µM. For the same compound, in data set [8], the CC50 was more than 10 µM.

The record behind these values is PMC12608155, “Discovery of Potential Antileishmanial Compounds Through Phenotypic Screening of an Alkaloid Library” (Molecules, 2025).
